Measured values as given in patent US10913732B2, “Furoxans as therapies for neurodegenerative disorders” (The University of Toledo, priority 2016, dated 2021).

Experiments:
PC12 cells = assay: In vitro neuroprotection against oxygen glucose deprivation (OGD), MTT viability readout; format: cell-based; settings: OGD 90 min, reoxygenation, furoxan 1, 10 or 25 μM, 24 hr
Experimental: FIGS. 3A-3C: Neuroprotection (FIG. 3A), MTT treatment was used to assess cell viability (FIG. 3B), and pCREB modulation (FIG. 3C) of furoxan compounds. Neuroprotection assay workflow: expose PC12 cells to oxygen glucose deprivation (OGD) for 90 min→reoxygenate and add furoxan (1, 10, or 25 μM)→incubate for 24 hr→MTT readout of viability. Data represented as mean and s.e.m. (n=3). *=p<0.05, **=p<0.01, ***=p<0.001 compared to vehicle control using one way ANOVA analysis with Dunnett's post-hoc test. Red dashed line indicates threshold of vehicle effects. For pCREB modulation, 31b (25 μM) was examined (PC-12 cells, 48 hr incubation) in the following: without insult, with OGD, L-NAME.
It has been shown that furoxans are protective against oxygen glucose deprivation (OGD), a commonly used cellular model of ischemic stroke. PC12 cells were submitted to OGD for 90 minutes followed by reoxygenation and treatment with varying concentrations of selected embodiments of compounds of Formula I (indicated in FIG. 3A). After 24 hr, MTT treatment was used to assess cell viability (FIG. 3B). […] It has been shown previously that 4-N-oxides release NO at a much slower rate than corresponding 2-N-oxides.

Male C57BL/6 mice = assay: Step-through passive avoidance (STPA), scopolamine-induced amnesia; format: in vivo; settings: scopolamine 1 mg/kg i.p. alone (vehicle treated: 270 s±30 s), 24 hr after training
Experimental: FIGS. 4A-4B: STPA experimental timeline (FIG. 4A), and results of Male C57BL/6 mice administered either vehicle or 31b via i.p. injection at 60 min or 120 min prior to training in STPA (FIG. 4B). […] Memory retention was measured as latency to enter the dark compartment 24 h after training. Data represented as mean and s.e.m.
The STPA apparatus consisted of an acrylic box with an illuminated compartment connected to a darkened compartment by a small guillotine door. Mice were placed in the illuminated side and were trained against their natural tendency to translocate to the dark side using an aversive stimulus (shock via electrified floor grading). Memory consolidation is measured as the latency times to enter the dark compartment 24 hr after training.
All procedures were performed under the approved IACUC protocol #108451. Male C57BL/6 mice (Envigo), N=9 per group, were habituated at the animal facility for at least 14 days. Ear tags were applied and animals weighed. 2 hr prior to the drug adminstration the mice were individually acclimated to the illuminated compartment to assess tendency to enter the dark chamber (measured in seconds). In this phase no shock was be delivered. […] The mice were then administered either vehicle (95 [0.9% NaCl]:5 [DMSO]) or 31b (0.1, 1, 10, or 20 mg/kg) via i.p. injection (50 μL) at 1 h or 2 h prior to training. […] Mice were individually placed into the light compartment and upon translocation to the dark compartment the guiltine door closed and the mice were trained by delivering a mild adversive stimulus (0.5 mA) via the electrified floor grading of the dark chamber. Each mouse was held in the dark chamber for 30 seconds, then returned to their cage for 120 seconds before the second training session. […] Memory retention was measured 24 hours after training by placing the same mouse in the light chamber and measuring latency to enter the dark chamber (no aversive stimulus is delivered during the retention test). Data was analyzed by one way ANOVA analysis with Dunnett's post-hoc test.

Structure (SMILES): CC1CCN(Cc2no[n+]([O-])c2-c2ccc(Br)cc2)CC1 [33b]
- Neuroprotection against OGD (cell viability by MTT) (PC12 cells): outperform the corresponding 2-N-oxides

Structure (SMILES): CC1CCN(Cc2no[n+]([O-])c2-c2ccc(OC(F)(F)F)cc2)CC1 [37b, 4-((4-methylpiperidin-1-yl)methyl)-3-(4-(trifluoromethoxy)phenyl)-1,2,5-oxadiazole 2-oxide]
- Neuroprotection against OGD (cell viability by MTT) (PC12 cells): outperform the corresponding 2-N-oxides

Structure (SMILES): [2H]C1([2H])CC(C)CC([2H])([2H])N1Cc1no[n+]([O-])c1-c1ccc(F)cc1 [41b]
- Neuroprotection against OGD (cell viability by MTT) (PC12 cells): outperform the corresponding 2-N-oxides

Structure (SMILES): Cc1ccc(-c2c(CN3CCC(C)CC3)no[n+]2[O-])cc1 [38b, 4-((4-methylpiperdin-1-yl)methyl)-3-(p-tolyl)-1,2,5-oxadiazole 2-oxide]
- Neuroprotection against OGD (cell viability by MTT) (PC12 cells): outperform the corresponding 2-N-oxides

Structure (SMILES): CN1[C@@H]2C[C@@H](OC(=O)[C@H](CO)c3ccccc3)C[C@H]1[C@@H]1O[C@@H]12 [Scopolamine, reference compound]
- Latency to enter the dark compartment (Male C57BL/6 mice): 63.5 s
